Assay results published in patent US9096853B2, “Modified siRNA molecules incorporating 5-fluoro-2′-deoxyuridine residues to enhance cytotoxicity” (U.S. Department of Veterans Affairs, priority 2012, dated 2015).
[5FU] = 5-fluorouracil base, with d sugar it is 5-fluoro-2'-deoxyuridine (FdU); d = 2'-deoxy (DNA); r = 2'-OH (RNA)

How the values were obtained:
[1] = tested on: thymidylate synthase (TS) protein; experiment: Immunoblot analysis of TS protein (free and ITC-bound), Odyssey quantitation; type: cell-based, human; conditions: RKO cells, ssiRNA 1 nM, 48 hr; for Free TS (%) / ITC-Bound TS (%): normalized to free TS protein in mock-transfected cells (LF2000) set to 100%, mean ± S.D., 6 experiments
Protocol: (§1) FIGS. 1A-B illustrate the effect of FdU incorporation in ssiRNA on TS protein expression. RKO cells were transfected with TS6 ssiRNAs (1 nM) containing various 3′-overhangs. After 6 hr, the medium was replaced. After an additional 48 hr, cells were harvested and processed for immunoblot and qPCR analysis as described in the Materials and Methods section. (A) Representative blot from 4 experiments. (B) All qPCR values represent the mean±S.D. from at least 3 separate experiments performed in triplicate. The normalized amount of TS mRNA from mock-transfected cells (LF2000) was set to 1.0 and all other values compared against that value. ITC, inhibitory ternary complex;
Cells were plated at a density of 1.5×10^5 cells/well. On the following day, ssiRNAs were complexed with Lipofectamine 2000 (LF2000, Invitrogen) in serum-free RPMI-1640 medium and added to the plated cells. After 48 hr, cells were rinsed with PBS and scraped in cell lysis buffer (10 mM Tris pH7.4, 150 mM NaCl, 1 mM EDTA, 1% IGEPAL, 0.5% sodium deoxycholate, and 0.1% SDS) containing freshly added Protease Inhibitor Cocktail (Sigma; St. Louis, Mo.), 1 mM phenylmethylsulfonyl fluoride, and phosphatase inhibitors (Sigma). Lysates were sonicated and then centrifuged at 14,000 rpm for 30 min at 4° C. to remove debris. Cell lysates were stored at −80° C. for future use. For mRNA analysis, total RNA was extracted using Trizol (Invitrogen) and stored at −80° C. for future use.
(§2) Protein concentrations of cell lysates were determined using the DC Protein Assay (Bio-Rad; Hercules, Calif.). Equal amounts of protein (30 μg) from each cell lysate were resolved on SDS-PAGE using the method of Laemmli (Reference 19) and transferred onto 0.45 μm nitrocellulose membranes (Bio-Rad). Membranes were blocked and incubated overnight with primary antibodies at 4° C. The following antibodies were used in the experiments: anti-TS (Clone 4H4B1; Invitrogen), anti-TS (#5449; Cell Signaling; San Francisco, Calif.), anti-p21 Waf1/Cip1 (#2947; Cell Signaling), anti-p53 (#sc-126; Santa Cruz Biotechnology; Santa Cruz, Calif.), anti-PARP (#9542; Cell Signaling), anti-Fas (#4233; Cell Signaling), anti-phospho-histone H2A.X (Ser139) (#2577; Cell Signaling), anti-histone H2A.X (#7631; Cell Signaling), anti-phospho-ATM (pS1981; EPITOMICS Inc.; Burlingame, Calif.), anti-ATM (#A1106; Sigma), and anti-α-tubulin (EMD Biosciences; San Diego, Calif.). After multiple TBST washes (1×TBS, 0.1% Tween-20), membranes were incubated with corresponding horseradish peroxidase-conjugated secondary antibodies (Bio-Rad) for 1 hr at room temperature. Proteins were detected by the enhanced chemiluminescence method (SuperSignal West Pico substrate; Pierce; Rockford, Ill.). Quantitation of signal intensities was performed by densitometry on a Xerox scanner using NIH IMAGEJ software.
Immunoblots were prepared as described above. After incubation with anti-TS polyclonal antibody, membranes were blocked with the Odyssey blocking buffer and incubated with IRDye 800CW goat anti-rabbit antibody (LI-COR Biosciences; Lincoln, Nebr., USA) according to the manufacturer instructions. The fluorescent signal was detected and quantified using the Odyssey infrared imaging system (LI-COR).

TS mRNA = experiment: Real time qRT-PCR analysis of TS mRNA; type: cell-based, human; conditions: RKO cells, ssiRNA 1 nM, 48 hr
Protocol: as §1
Cells were plated at a density of 1.5×10^5 cells/well. […]
The first-strand cDNA was synthesized using 1.0 μg total RNA and the iScript™ Reverse Transcription Supermix for real-time quantitative polymerase chain reaction (qRT-PCR) (Bio-Rad; Hercules, Calif.). PCR was performed in triplicate using the SsoFast™ Probes Supermix (Bio-Rad) in a final reaction volume of 10 μL with gene-specific primer/probe sets, and a standard thermal cycling procedure (40 cycles) on a Bio-Rad CFX96™ Real-Time PCR System. mRNA levels of TS and 18S RNA were assessed using the TaqMan Gene Expression real-time PCR assays (Applied Biosystems; assay ID: Hs00426586_m1 and Hs03928990_g1, respectively). Results were expressed as the threshold cycle (Ct). […]

[2] = tested on: human colon cancer RKO cell line; experiment: Cell proliferation assay (WST-1) in RKO cells; type: cell-based; conditions: for IC50: 6 hr exposure then 96 hr growth, mean ± S.D., at least 3 experiments
Protocol: RKO cells were plated in 96-well plates at a density of 800 cells/well. On the following day, cells were incubated with ssiRNA/LF2000 complexes for 6 hr, after which time, the growth medium was replaced, and cells were grown for an additional 96 hr. Similarly, RKO cells were treated with FdU (#F0503, Sigma) for 6 hr followed by medium replacement and then allowed to grow for an additional 96 hr. Cell proliferation/viability was quantified by the WST-1 assay (Roche; Indianapolis, Ind.).

[3] = tested on: human colon cancer RKO cell line; experiment: Clonogenic assay in RKO cells; type: cell-based; conditions: for IC50: 6 hr exposure, colonies counted after 8 days, mean ± S.D., at least 3 experiments
Protocol: RKO cells were plated in 6-well plates at a density of 600 cells/well. On the following day, cells were transfected with ssiRNA/LF2000 complexes for 6 hr after which time, the growth medium was replaced. Similarly, FdU was added to wells for 6 hr followed by medium replacement. After 8 days, cell colonies were fixed with Trypan blue solution (75% methanol/25% acetic acid/0.25% trypan blue), washed, and air-dried before counting colonies >50 cells.

[4] = tested on: p53, Fas, cleaved PARP, γH2AX, p-ATM; experiment: Immunoblot of DNA damage and apoptosis signaling proteins, time course; type: cell-based, human; conditions: RKO cells, ssiRNA 10 nM, 0-72 hr
Protocol: FIG. 5 illustrates time-dependent effects of FdU-containing ssiRNAs on protein expression. RKO cells were transfected with various TS6 ssiRNAs (10 nM). After 6 hr, the medium was replaced, and cells were harvested for immunoblot blot analysis at the following times: before39 transfection (pre) and 0, 24, 48, and 72 hr after transfection. Images shown are representative blots from at least 4 different experiments; and
as §2

[5] = tested on: thymidylate synthase (TS) protein; experiment: Immunoblot analysis of TS protein (free and ITC-bound), Odyssey quantitation; type: cell-based, human; conditions: RKO cells; for formation of the ITC immediately after transfection: ssiRNA 10 nM, 0 hr after 6 hr transfection
GC3/TK− cells = experiment: Cell proliferation (WST-1) in thymidine kinase-deficient GC3/TK− cells; type: cell-based, human; conditions: 6 hr transfection, additional 5 days
Protocol: FIGS. 2A-B illustrate the effect of TK knockdown on the cytotoxicity of the FdU-modified ssiRNA. (A) RKO cells were transfected with 1 nM TK siRNA (lanes 3 and 4) or Mis-dU/dA (lane 5). After 6 hr, the medium was replaced with fresh medium. On the following day, cells were transfected with TS6-FdU/dA ssiRNA (1 nM) for 6 hr (lanes 2, 4, and 5) after which time, cells were harvested for immunoblot analysis. RKO cells were treated with 5-fluorouracil (5 nM) for 6 hr before harvesting (lane 6). (B) GC3/TK− cells were transfected with various concentrations of TS6-dU/dA or TS6-FdU/dA ssiRNA. After 6 hr, the medium was replaced and after an additional 5 days, cell proliferation was determined with the WST-1 assay;
The human colon cancer RKO cell line, originally obtained from ATCC, has been previously well-characterized and was maintained in RPMI-1640 (Invitrogen; Carlsbad, Calif.) with 10% (v/v) dialyzed fetal bovine serum at 37° C. in a humidified incubator with 5% CO2 (Reference 11). The thymidine kinase-deficient GC3/TK− cells were a gift from Dr. Janet Houghton (Reference 18). Cells were routinely authenticated by morphology and growth curve analysis. […]
RKO cells were plated in 96-well plates at a density of 800 cells/well. […] Cell proliferation/viability was quantified by the WST-1 assay (Roche; Indianapolis, Ind.).

RKO cells = experiment: Flow cytometry, FITC Annexin V apoptosis detection; type: cell-based, human; conditions: ssiRNA 10 nM, after 72 hr
Protocol: FIGS. 6A-B illustrate induction of apoptosis after transfection of FdU-containing ssiRNAs. RKO cells were transfected with various TS6 ssiRNAs (10 nM). After 6 hr, the medium was replaced with fresh medium. After 72 hr, cells were harvested, fixed, stained, and analyzed by flow cytometry as described in the Materials and Methods section. (A) Representative cytometry images from one experiment. Lower left quadrant represents viable cells; lower right quadrant, early apoptotic cells; upper right quadrant, late apoptotic cells; upper left quadrant, necrotic cells. (B) Percentage values represent the mean±S.D. from 3 separate experiments.
RKO cells were plated in T-25 cm^2 flasks at a density of 2.5×10^5/flask. Cells were transfected on the following day with siRNA/LF2000 complexes for 6 hr. After medium replacement and additional incubation for 48 and 72 hr, respectively, cells were harvested, washed twice with PBS, resuspended in 1× binding buffer at a concentration of 1×10^6 cells/mL according to the manufacturer's protocol, stained with FITC Annexin V Apoptosis Detection Kit (BD Biosciences; San Jose, Calif.), and analyzed on the BD Accuri C6 Flow Cytometer (BD Accuri Cytometers Inc.; Ann Arbor, Mich.) at the UPCI Flow Cytometry Facility.

Row | Substance | effect on TS protein expression (in words) [1] | Free TS (%) [1] | ITC-Bound TS (%) [1] | effect on TS mRNA expression (in words) (TS mRNA) | IC50 [2] | IC50 [3] | biomarkers of DNA damage, γH2AX and p-ATM [4] | formation of the ITC immediately after transfection [5] | enhancement of IC50 versus non-targeted mismatch-FdU/dA, growth assay [2] | lower IC50 versus non-targeted mismatch-FdU/dA, clonogenic assay [3] | IC50 (GC3/TK− cells) | cleaved PARP, a marker of apoptosis [4] | p53 levels [4] | early and late apoptotic cells (RKO cells) | formation of the ITC after knockdown of thymidine kinase ([5]; TK siRNA 1 nM, next day TS6-FdU/dA 1 nM for 6 hr)
1 | Mis-FdU/dA: control, non-targeted ssiRNA containing 5 FdU residues on the sense strand; SEQ ID NO: 21 and 22 (chain 1 GGAUACUGCCAAUCUCUAGGUUUUU; chain 2 CCUAGAGAUUGGCAGUAUCCAAAAA; chain 1: sugars from the 5' end r20 d5, [5FU] at 21, 22, 23, 24, 25, backbone not given here; chain 2: sugars from the 5' end r20 d5, backbone not given here) | absolutely no inhibitory effect | 89.5 ± 26.2% | 45.6 ± 21.1% | absolutely no inhibitory effect | 2.88 nM | 1.75 nM | little to no effect | formation of the ITC is observed |  |  |  |  |  |  | 
2 | TS6-FdU/dA: TS-targeted ssiRNA, all 3′-end overhang dU of sense strand replaced with FdU (5 FdU); SEQ ID NO: 9 and 10 (chain 1 GGAUAUUGUCAGUCUUUAGGUUUUU; chain 2 CCUAAAGACUGACAAUAUCCAAAAA; chain 1: sugars from the 5' end r20 d5, [5FU] at 21, 22, 23, 24, 25, backbone not given here; chain 2: sugars from the 5' end r20 d5, backbone not given here) |  | 29.8 ± 12.0% | 22.0 ± 11.8% |  | 0.81 nM | 0.17 nM | strongly induced | formation of the ITC is observed | 3.5 fold | 10 fold | 45.9 ± 18.6 nM | elevated | rapidly induced | significant increase | prevented formation of the ITC
